Measurements reported in ChEMBL document CHEMBL5543099 (Eur J Med Chem, 2024).
In brackets after ≈: the same amount, converted by molar mass. Activity calls are given as the source filed them. No cut-off for these calls is given here.

What was measured:
[1] = Hemolytic activity in sheep RBC assessed as hemolysis incubated for 1 hrs by absorbance based assay; format: toxicity, cell-based, Ovis aries, Erythrocyte; conditions: sheep red blood cells
[2] = system: Staphylococcus aureus; test: Antibacterial activity against Staphylococcus aureus assessed as inhibition of bacterial growth incubated for 16 to 20 hrs by CLSI protocol based broth microdilution method; format: functional; conditions: time 16-20 hrs
[3] = system: Staphylococcus aureus; test: Antibacterial activity against Staphylococcus aureus assessed as inhibition of bacterial growth by measuring fold change in MIC incubated for 6 hrs in presence of 50% fetal bovine serum by CLSI protocol based Muller Hinton broth assay; format: functional
[4] = system: Staphylococcus aureus; test: Antibacterial activity against Staphylococcus aureus assessed as inhibition of bacterial growth incubated for 6 hrs in presence of 50% fetal bovine plasma by CLSI protocol based Muller Hinton broth assay; format: functional
[5] = system: Staphylococcus aureus; test: Antibacterial activity against Staphylococcus aureus assessed as inhibition of bacterial growth incubated for 6 hrs in presence of defibrinated sheep 50% plasma by CLSI protocol based Muller Hinton broth assay; format: functional
[6] = system: Staphylococcus aureus; test: Antibacterial activity against Staphylococcus aureus assessed as inhibition of bacterial growth by measuring fold change in MIC incubated for 6 hrs in presence of defibrinated sheep 50% plasma by CLSI protocol based Muller Hinton broth assay; format: functional
[7] = system: Staphylococcus aureus; test: Antibacterial activity against Staphylococcus aureus assessed as inhibition of bacterial growth by measuring fold change in MIC incubated for 6 hrs in presence of 50% fetal bovine plasma by CLSI protocol based Muller Hinton broth assay; format: functional
[8] = system: Staphylococcus aureus; test: Antibacterial activity against Staphylococcus aureus assessed as inhibition of bacterial growth incubated for 6 hrs in presence of 50% fetal bovine serum by CLSI protocol based Muller Hinton broth assay; format: functional
[9] = Cytotoxicity against rat HBZY-1 cells assessed as cell survival rate at 64 microg/ml incubated for 48 hrs by CCK8 assay relative to control; format: toxicity, cell-based; conditions: at 64 µg/mL, read-out: Activity
[10] = Cytotoxicity against human SW620 cells assessed as cell survival rate at 64 microg/ml incubated for 48 hrs by CCK8 assay relative to control; format: toxicity, cell-based, SW-620; conditions: at 64 µg/mL, read-out: Activity
[11] = system: Cell membrane; test: Induction of Cytoplasmic membrane depolarization in Staphylococcus aureus at 16 microg/ml incubated for 15 mins by DiSC3(5) dye based fluorescence microplate reader; format: cell membranes; conditions: dose 16.0 µg/ml
[12] = system: Cell membrane; test: Induction of cell membrane damage in Escherichia coli assessed as nucleic acid leakage at 4 times of MIC incubated for 2 hrs by n ultra-micro-volume spectrophotometric analysis; format: cell membranes
[13] = system: Enterococcus faecalis; test: Antimicrobial activity against Enterococcus faecalis ATCC 29212 assessed as inhibition of bacterial growth incubated for 16 to 18 hrs by CLSI protocol based Muller Hinton broth assay; format: functional; conditions: time 16-18 hrs
[14] = system: Stenotrophomonas maltophilia; test: Antimicrobial activity against Stenotrophomonas maltophilia ATCC 17808 assessed as inhibition of bacterial growth incubated for 16 to 18 hrs by CLSI protocol based Muller Hinton broth assay; format: functional; conditions: time 16-18 hrs
[15] = system: Cell membrane; test: Induction of inner membrane permeabilization in Staphylococcus aureus assessed as fluorescence intensity at 16 microg/ml incubated for 15 mins by PI staining based microplate reader; format: cell membranes; conditions: dose 16.0 µg/ml
[16] = system: Cell membrane; test: Induction of inner membrane permeabilization in Staphylococcus aureus assessed as increase in fluorescence intensity at 16 microg/ml incubated for 15 mins by PI staining based microplate reader; format: cell membranes; conditions: dose 16.0 µg/ml
[17] = Hemolytic activity in defibrinated sheep RBC incubated for 1 hrs; format: toxicity, cell-based, Ovis aries, Erythrocyte; conditions: defibrinated sheep red blood cells
[18] = system: Staphylococcus aureus; test: Antimicrobial activity against Staphylococcus aureus ATCC 29213 assessed as inhibition of bacterial growth incubated for 16 to 18 hrs by CLSI protocol based Muller Hinton broth assay; format: functional; conditions: time 16-18 hrs
[19] = system: Escherichia coli; test: Antimicrobial activity against Escherichia coli ATCC 25922 assessed as inhibition of bacterial growth incubated for 16 to 18 hrs by CLSI protocol based Muller Hinton broth assay; format: functional; conditions: time 16-18 hrs
[20] = system: Staphylococcus aureus; test: Antibacterial activity against Staphylococcus aureus assessed as reduction in bacterial colony at 8 times of MIC incubated for 8 hrs by time-kill kinetics assay; format: functional, organism-based

Row | Compound | MIC [13] [µg/mL] | MIC [14] [µg/mL] | HC50 at 1 h [17] [µg/mL] | MIC [18] [µg/mL] | MIC [19] [µg/mL] | further results
1 | CCCCCCCNC(=O)C[N+](C)(C)CCCOc1ccc(OCCC[N+](C)(C)CC(=O)NCCCCCCC)cc1.[Br-].[Br-] |  |  |  |  |  | HC50 at 1 h [1]: 1220 µg/mL; MIC [2]: 0.5 µg/mL
2 | COLISTIN |  |  |  |  |  | fold change (FC) [3]: 4; MIC [4]: 16 µg/mL; MIC [5]: 16 µg/mL; fold change (FC) [6]: 4; fold change (FC) [7]: 2; MIC [8]: 8 µg/mL
3 | C=C[C@]1(C)C[C@@H](OC(=O)CS[C@@H]2C[C@H]3CC[C@@H](C2)N3C)[C@]2(C)[C@H](C)CC[C@]3(CCC(=O)[C@H]32)[C@@H](C)[C@@H]1O [RETAPAMULIN] |  |  |  |  |  | viability at 48 h, 64 microg/ml [9]: 1.7%; viability at 48 h, 64 microg/ml [10]: 4.7%
4 | GENTAMICIN |  |  |  |  |  | Activity [11]: inactive
5 | CC[C@H](C)[C@H](NC(=O)CN)C(=O)NCC(=O)N[C@@H](C)C(=O)N[C@H](C(=O)N[C@@H](CC(C)C)C(=O)N[C@@H](CCCCN)C(=O)N[C@H](C(=O)N[C@@H](CC(C)C)C(=O)N[C@H](C(=O)N[C@H](C(=O)NCC(=O)N[C@@H](CC(C)C)C(=O)N1CCC[C@H]1C(=O)N[C@@H](C)C(=O)N[C@@H](CC(C)C)C(=O)N[C@H](C(=O)N[C@@H](CO)C(=O)N[C@@H](Cc1c[nH]c2ccccc12)C(=O)N[C@H](C(=O)N[C@@H](CCCCN)C(=O)N[C@@H](CCCNC(=N)N)C(=O)N[C@@H](CCCCN)C(=O)N[C@@H](CCCNC(=N)N)C(=O)N[C@@H](CCC(N)=O)C(=O)N[C@@H](CCC(N)=O)C(N)=O)[C@@H](C)CC)[C@@H](C)CC)[C@@H](C)O)[C@@H](C)O)C(C)C)C(C)C [MELITTIN] | 2 (≈ 0.703 µM) | 8 (≈ 2.81 µM) |  |  |  | Activity [12]: Active; fold change (FC) [3]: 32; Activity [11]: Active; viability at 48 h, 64 microg/ml [9]: 1.4%; viability at 48 h, 64 microg/ml [10]: 5.7%; fold change (FC) [6]: 32; fold change (FC) [7]: 32; Flu intensity [15]: 600
6 | C=C[C@]1(C)C[C@@H](OC(=O)CSCCN(CC)CC)[C@]2(C)[C@H](C)CC[C@]3(CCC(=O)[C@H]32)[C@@H](C)[C@@H]1O [TIAMULIN] |  |  |  |  |  | viability at 48 h, 64 microg/ml [9]: 85.9%; viability at 48 h, 64 microg/ml [10]: 32.9%
7 | O=C(O)c1cn(C2CC2)c2cc(N3CCNCC3)c(F)cc2c1=O |  |  |  |  |  | Activity [16]: inactive; Activity [11]: inactive
8 | CC(C)(C)c1ccc(C[n+]2ccc(C(=O)N3CCN(c4cc5c(cc4F)c(=O)c(C(=O)O)cn5C4CC4)CC3)cc2)cc1.[Br-] | 4 | 4 | > 1280 | 8 | 4 | 
9 | CCCNC(=O)C[n+]1ccc(C(=O)N2CCN(c3cc4c(cc3F)c(=O)c(C(=O)O)cn4C3CC3)CC2)cc1.[Br-] | 16 | > 64 | > 1280 | 16 | 16 | 
10 | CN[C@H](CC(C)C)C(=O)N[C@H]1C(=O)N[C@@H](CC(N)=O)C(=O)N[C@H]2C(=O)N[C@H]3C(=O)N[C@H](C(=O)N[C@H](C(=O)O)c4cc(O)cc(O)c4-c4cc3ccc4O)[C@H](O)c3ccc(c(Cl)c3)Oc3cc2cc(c3O[C@@H]2O[C@H](CO)[C@@H](O)[C@H](O)[C@H]2O[C@H]2C[C@](C)(N)[C@H](O)[C@H](C)O2)Oc2ccc(cc2Cl)[C@H]1O [VANCOMYCIN] | 2 (≈ 1.38 µM) |  |  |  |  | Activity [20]: Active
11 | CCCCCNC(=O)C[n+]1ccc(C(=O)N2CCN(c3cc4c(cc3F)c(=O)c(C(=O)O)cn4C3CC3)CC2)cc1.[Br-] | 8 | 64 | > 1280 | 16 | 16 | 
12 | O=C(O)c1cn(C2CC2)c2cc(N3CCN(C(=O)c4cc[n+](Cc5ccc(F)cc5)cc4)CC3)c(F)cc2c1=O.[Br-] | 8 | 4 | > 1280 | 16 | 4 | 
13 | CCCCCCCNC(=O)C[n+]1ccc(C(=O)N2CCN(c3cc4c(cc3F)c(=O)c(C(=O)O)cn4C3CC3)CC2)cc1.[Br-] | 2 | 32 | > 1280 | 4 | 4 | 
